Data taken from patent US20240415918A1, “Polypeptide and its use as a CCK receptor agonist/antagonist” (Centre for Regenerative Medicine & Health, Hong Kong …, priority 2021, published 2024).
Where two headings read alike, the source gives them in different places. Where a SMILES comes first, the peptide text is derived from it. [ ]: non-standard residue; d: D form. Phe(3-Br) = N[C@@H](Cc1cccc(Br)c1)C(=O)O; Nle = CCCC[C@H](N)C(=O)O

Tests used:
senile wild-type mice = experiment: Morris water maze, senile wild-type mice; format: in vivo, mice (C57BL/6); details: intraperitoneal injection
[1] = male, KM, mouse, in vivo, iv, 1 mg/kg
[2] = test system: tri-transgenic Alzheimer's mice (3×Tg-AD); experiment: Morris water maze, Alzheimer's mice; format: in vivo; details: intraperitoneal injection
From the text: Adult male tri-transgenic Alzheimer's mice (3×Tg-AD) were housed under standard conditions with free access to food and water. Our Morris water maze experiment for testing Alzheimer's mice mainly included two parts: positioning navigation experiment and space exploration experiment. The positioning navigation experiment lasted for 8-10 days, and the mice were put into the water four times a day from four entry points facing the pool wall, and the time they spent in finding the hidden platform under the water surface (evasion latency) was recorded. The space exploration experiment was to remove the platform after the positioning navigation experiment, and then put the mice into the pool, record their swimming tracks within one minute, investigate the memory of the mice on the original platform, and calculate the proportion of exploration duration of the mice in the quadrant where the original platform was located (target quadrant). Alzheimer's mice were confirmed to have memory deficiency in the Morris water maze experiment, showing not only a longer evasion latency for positioning the hidden platform in the positioning navigation experiment, but also a worse memory backtracking ability in the space exploration experiment. We randomized Alzheimer's mice into four groups, with the first group given intraperitoneal injection of the CCK4 solution, the second group given intraperitoneal injection of the solvent of CCK4 solution as a control, the third group given intraperitoneal injection of the compound HT-267 solution, and the fourth group given intraperitoneal injection of the solvent of HT-267 solution as a control.

[3] = mouse, in vivo; cited from earlier work
memory-deficient mice [4] = experiment: Morris water maze, memory-deficient mice; format: in vivo; details: intraperitoneal injection, CCK4 four times a day 10 days, HT compounds once a day 8 days
From the text: Adult memory-deficient mice were housed under standard conditions with free access to food and water. Our Morris water maze experiment for testing memory-deficient mice mainly included two parts: positioning navigation experiment and space exploration experiment. The experimental methods were the same as Example 5. We randomized memory-deficient mice into six groups, with the first group given intraperitoneal injection of the CCK4 solution, the second group given intraperitoneal injection of the solvent of CCK4 solution as a control, the third group given intraperitoneal injection of the compound HT-267 solution, the fourth group given intraperitoneal injection of the compound HT-177 solution, the fifth group given intraperitoneal injection of the compound HT-178 solution, and the sixth group given intraperitoneal injection of the solvent of compound solution as a control. In the positioning navigation experiment, the treatment and training methods of the first and the second groups were the same as those of the first and second groups in Example 5, that is, four times of treatment a day, four times of training a day, for a total of 10 days of training. The treatment and training methods of the third to sixth groups were the same as the third and fourth groups in Example 5, that is, one treatment a day, four times of training a day, for a total of 8 days of training. In the space exploration experiment, the spatial memory ability of mice was tested in the same way for each group.

[5] = molecular target: T1, CCK-B receptors (CHO-CCK) (Homo sapiens, UniProt P32239); experiment: Calcium flux (Fluo-8) antagonist test on CHO-CCK model cells in presence of CCK8; format: cell-based; details: compound together with 10 nM CCK8
T1 construct: expressed in transfected cells; host or cells: CHO (CHO-CCK model cells)
T1 sequence (P32239 1-447): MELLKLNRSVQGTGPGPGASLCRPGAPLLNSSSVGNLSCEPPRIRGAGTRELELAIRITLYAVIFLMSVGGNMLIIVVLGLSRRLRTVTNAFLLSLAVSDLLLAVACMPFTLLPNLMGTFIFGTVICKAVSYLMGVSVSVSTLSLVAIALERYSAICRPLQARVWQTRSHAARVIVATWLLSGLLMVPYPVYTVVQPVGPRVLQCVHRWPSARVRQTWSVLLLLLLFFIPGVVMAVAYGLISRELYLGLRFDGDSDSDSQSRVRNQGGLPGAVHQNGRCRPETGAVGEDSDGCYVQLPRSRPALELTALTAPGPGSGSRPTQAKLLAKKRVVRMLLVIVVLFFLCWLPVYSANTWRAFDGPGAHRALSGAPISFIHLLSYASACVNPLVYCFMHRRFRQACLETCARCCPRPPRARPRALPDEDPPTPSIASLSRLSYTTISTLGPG

memory-deficient mice [6] = experiment: New object recognition experiment, memory-deficient mice; format: in vivo; details: intraperitoneal injection
From the text: The new object recognition experiment is a highly validated method of cognitive memory, designed by Ennaceur & Delacour (1988) based on the exploration characteristics of rodents to new environments, and this model evaluates the memory function of the tested animal based on the length of time that the animal spends in exploring familiar objects it has seen in the environment and new objects it has not seen. […] The experiment is usually divided into three stages: 1. Adaptation period: let the animal be familiar with the experimental environment, and no objects are placed in the experimental box; 2. Familiarization period: place two identical objects in the experimental box and let the mice explore freely for 10 minutes; 3. Test period: put a new object in the experimental box to replace one of the old objects, and the positions of the objects remain unchanged. The exploration of mice was recorded with video, and the time spent in exploring the old and new objects by mice was analyzed, and the proportion of time spent in exploring the new object by mice in the test period accounting for the total time for exploring the objects was calculated, that is, the recognition index of new objects.
Adult memory-deficient mice were housed under standard conditions with free access to food and water. Our new object recognition experiment for testing memory-deficient mice mainly included the adaptation period, the familiarization period, and the test period. The experimental method was the same as Example 12.
We randomized memory-deficient mice into four groups, with one group given intraperitoneal injection of the solvent of drug as the control group, administration group 1 given intraperitoneal injection of the compound HT-267 solution, administration group 2 given intraperitoneal injection of the compound HT-177 solution, and administration group 3 given intraperitoneal injection of the compound HT-178 solution. After the adaptation and familiarization period training, we tested the recognition memory of several groups of mice in the test period experiment.

[7] = test system: CCK-B receptor carrying green fluorescence; details: intraperitoneal injection, visual cortex imaging
[8] = test system: neocortex of memory-deficient mice; experiment: Long-term potentiation, in vitro field potential recording of brain slices (MED64), memory-deficient mice; format: cell-based; details: compound injected for five minutes
From the text: An in vitro electrophysiological electrical signal recording method was used to investigate whether compound HT-267, compound HT-177, and compound HT-178 can induce long-term potentiation in the neocortex of memory-deficient mice. The MED64 low-noise multi-electrode recording system was used to record the electrical signals of brain slices cultured in vitro.

[9] = molecular target: T1, CCK-B receptors (CHO-CCK); experiment: Calcium flux (Fluo-8) agonist test on CHO-CCK model cells; format: cell-based; details: CHO-CCK cells; for EC50: compound alone, 100% = 20 nM CCK8
Outline: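 Agonist-mode Fluo-8 calcium flux read on CHO-CCK cells after dye loading 30 min at 37 °C plus 30 min at room temperature.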

in vivo = details: male, KM, mouse, iv, 1 mg/kg, T1/2
[10] = Pharmacokinetics in KM mice after intravenous administration; details: male, mouse, plasma, 1 mg/kg

concentration in blood samples (below detection limitation) [1] [ng/mL]	SMILES	evasion latency in positioning navigation experiment vs control (senile wild-type mice)	spatial exploration tracks in space exploration experiment (senile wild-type mice)	proportion of exploration duration in the target quadrant vs control [2]	spatial exploration tracks in space exploration experiment [2]	evasion latency in positioning navigation experiment vs control ([2]; CCK4 four times a day 10 days, HT-267 once a day 8 days)	half-life [3]	proportion of exploration duration in the target quadrant vs control (memory-deficient mice [4])	EC50 [5] [nM]	recognition index of new objects vs control (memory-deficient mice [6])	blood-brain barrier crossing / green fluorescence signal of CCK-B receptor sensor [7]	basal field potential after administration (long-term potentiation) [8]	agonistic/antagonistic activity on CCK-B receptors (in words) ([9]; calcium signal)	EC50 [9] [nM]	half-life (in vivo) [min]	AUC(0-inf) [10] [ng·h/mL]	Cmax [10] [ng/mL]	Tmax [10] [min]
< 50	CSCC[C@H](NC(=O)[C@@H](N)Cc1c[nH]c2ccccc12)C(=O)N[C@@H](CC(=O)O)C(=O)N[C@@H](Cc1ccccc1)C(N)=O [CCK4, Trp-Met-Asp-Phe-NH2, reference compound]	shorter than that of the control group	more spatial exploration tracks at the original position of the platform	significantly higher than the control group	more spatial exploration tracks at the original position of the platform	shorter than that of the control group	less than 5 minutes	significantly higher than that in the control group	–	–	–	–	–	–	–	–	–	–
–	CCCC[C@H](NC(=O)[C@H](Cc1c[nH]c2ccccc12)NC(C)=O)C(=O)N[C@@H](CC(=O)O)C(=O)N[C@@H](Cc1cccc(Br)c1)C(N)=O [HT-177, Ac-Trp-Nle-Asp-Phe(3-Br)-NH2] (Ac-W[Nle]D[Phe(3-Br)]-NH2)	–	–	–	–	–	–	significantly higher than that in the control group	279	significantly higher than that of the control group	crossed the blood-brain barrier and was bound to the CCK-B receptor	enhanced, and the enhancement lasted for more than one hour	more active	0.056	43.3	641	403	15
–	CCCC[C@H](NC(=O)[C@@H](Cc1c[nH]c2ccccc12)NC(C)=O)C(=O)N[C@@H](CC(=O)O)C(=O)N[C@@H](Cc1cccc(Br)c1)C(N)=O [HT-178, Ac-D-Trp-Nle-Asp-Phe(3-Br)-NH2] (Ac-[dW][Nle]D[Phe(3-Br)]-NH2)	–	–	–	–	–	–	significantly higher than that in the control group	528	significantly higher than that of the control group	–	enhanced, and the enhancement lasted for more than one hour	–	2.81	–	–	–	–
